Source: patent US20190359653A1, “SELECTIVE PEPTIDE INHIBITORS OF FRIZZLED” (Genentech, Inc., priority 2016, published 2019)
Entries after “also recorded” stand apart in the source; their conditions may differ.

Legend:
[1] = target: T1, Wnt5a binding to FZD4 CRD (Homo sapiens, UniProt Q9ULV1); assay: ELISA of biotinylated Wnt5a binding to FZD CRD-Fc; settings: peptide 0-10 μM
T1 construct: hFZD4 CRD-Fc (cat no. 5847-FZ); purchased R&D systems 5847-FZ
T1 sequence (Q9ULV1 40-161 limits assumed): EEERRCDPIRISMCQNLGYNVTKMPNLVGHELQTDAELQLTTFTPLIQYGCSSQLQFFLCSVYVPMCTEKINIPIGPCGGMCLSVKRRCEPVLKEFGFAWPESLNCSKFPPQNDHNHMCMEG
Protocol: 384-well Maxisorp plates (cat. no. 464718; Thermo Scientific) were incubated with 30 μL of Neutravidin (cat. no. 31000, Thermo Scientific; 2 μg/mL in PBS) overnight at 4° C. Plates were then washed with PBST and blocked with PBS/1% BSA for 1 hour at RT and then washed with PBST prior to further processing. The binding assay was conducted in 96 well plates (cat no. 83007-374; VWR) which were blocked with PBS/1% BSA overnight at 4° C. hFZD4 CRD-Fc or hFZD7 CRD-Fc (63 ng/mL) were incubated with either Bio-Wnt3a (25 ng/mL) or Bio-Wnt5a (50 ng/mL) in the presence of 4-fold serial dilutions of the indicated peptide in PBS overnight at 4° C. All assays included hFZD9 CRD-mIgG2A protein as a negative control. hFZD7 CRD-His was suspended in 150 mM NaCl, 50 mM Tris-HCl at pH 7.5 and when used in assays an equal volume of the same buffer control was used. The binding assay mixtures were transferred to the Neutravidin coated plates and incubated for ˜1 h at RT. The wells were then washed with PBST, incubated with anti-hIgG1-HRP (1:10,000 suspended in PBS supplemented with 1% BSA; cat. no. A18817, Invitrogen), and washed again with PBST. The signal was developed with the addition of TMB reagent (following the manufacturer's recommendation; KPL; 50-76-00) for 15 min prior to the addition of an equal volume of 1 M phosphoric acid for 10 min Absorbance was measured at 450 nm using a Tekan M1000 plate reader. Values were collected and plotted using Prism Graphpad software. All assay conditions using peptides were at 1% DMSO final concentration. […]
Briefly, the assays were performed using (a) FZD1 CRD-Fc, (b) FZD2 CRD-Fc, (c) FZD4 CRD-Fc, or (d) FZD7 CRD-Fc as the capture reagent and biotinylated-Wnt5a as the detection reagent. […] Streptavidin-HRP was used to detect biotinylated Wnt5a, and HRP activity was measured as a function of chemiluminescence detection at 428 nm. […]

[2] = test system: Lgr5-GFP organoids pre-treated with CHIR99021; APC^min organoids; assay: RT-PCR in organoids with active downstream Wnt signaling (CHIR99021 or APC^min); type: cell-based, mouse; settings: peptide 100 μM, 24 h; CHIR99021 5 μM pre-treatment or Apc mutant background
Protocol: Mouse organoids were established from isolated crypts collected from the entire length of the small intestine and maintained as previously described (Sato et al. (2009) Nature 459, 262-265 (2009). All mouse derived tissue was performed according to the animal use guidelines of Genentech, a Member of the Roche Group, and the Institutional Animal Care and Use Committee, conforming to California State legal and ethical practices. Mouse sex was not selected for. Organoids were passaged at least twice per week and grown using IntestiCult Organoid growth media (cat. no. 06005; StemCell Technologies). Peptides were suspended in DMSO and dissolved in media to 1% DMSO final concentration, then added to organoids to initiate drug treatment. Antibodies were added to 10 μg/ml concentration. […]
Briefly, Lgr5-GFP organoids were pre-treated with DMSO or the Gsk3β inhibitor CHIR99021 (5 μM) for 24 h, then treated with DMSO, dFz7-21 (100 μM), or Fz7-21S (100 μM)±CHIR99021. Transcripts were quantified by RT-PCR for Axin2 (FIG. 42A), and Asc12 (FIG. 42B). In a second set of experiments, APC^min organoids were cultured and treated with DMSO, dFz7-21 (100 μM), Fz7-21S (100 μM) for 24 h, and transcripts were quantified by RT-PCR for Axin2 (FIG. 42C), Asc12 (FIG. 42D), and Lgr5 ([…]).

[3] = test system: Wnt3a-stimulated β-catenin signaling in HEK293-TB cells; assay: luciferase reporter assay, HEK293-TB cells transfected with pCDNA3.2-Wnt3a; type: cell-based

Sequence | effect on Wnt5a binding to FZD4 CRD [1] | stem cell (Lgr5, Ascl2) and Wnt signaling (Axin2) markers [2] | inhibition of Wnt3a signaling [3]
LPSDDLEFWCHVMY [dFz7-21] | did not show any effect; also recorded: no such effect | Little or no effect | 
LPSDDLEFWSHVMY [Fz7-21S, negative control] | showed no effect |  | not found to inhibit
